Counter-ions that a name gives are not always drawn. Like-named read-outs stand apart in the source and are kept apart here.

The conditions of series [1]: oral administration, daily dose of about 1.5 to 4.5 mg; cited from earlier work.

As to `CCCN[C@H]1CCc2nc(N)sc2C1` [pramipexole, (S)-2-amino-4,5,6,7-tetrahydro-6-(propylamino)benzothiazole dihydrochloride monohydrate], the ionization result (at pH of about 8.0) is reported as “about 97%” and the ionization result (at pH of about 10.5) is “about 33%”. For the same compound, the bioavailability in series [1] is reported as 90%.

As usually defined, the bioavailability is dose-corrected exposure relative to a reference, in per cent.

Source of the values: patent US20080176913A1, “TRANSDERMAL COMPOSITIONS OF PRAMIPEXOLE HAVING ENHANCED PERMEATION PROPERTIES” (priority 2006, published 2008).
